Reference: patent publication US11572354B2, “Inhibitor of indoleamine 2,3-dioxygenase-1 and methods of manufacture and use thereof” (UNIVERSITY HEALTH NETWORK, priority 2018, dated 2023)
Like-named read-outs stand apart in the source and are kept apart here. One block for each compound: values may come before it.

Assays:
[1] = Pharmacokinetics studies in mice (plasma and brain concentration); assay type: in vivo; conditions: for Kp at 0.5 h / Kp at 2 h: brain/plasma
Procedure: In order to assess the pharmacokinetics of the IDO1 inhibitors of the present application, two inhibitors were administered to mice at 20 mg/kg via PO (G29), or IP (G28). For a preliminary pharmacokinetic profile, three animals were sacrificed per time point at 30 minutes and two hours post-dose. For a full pharmacokinetic profile, three animals were sacrificed per time point at 15 minute, 30 minutes, 1, 2, 4, 6, 8, and 24 hours post-dose.
Blood samples were collected via cardiac puncture, the mice were perfused with phosphate buffered saline (PBS) and the brains were collected. The blood and brain samples were protein precipitated with ice-cold acetonitrile and the concentration of the test compound in the resulting supernatant was quantified using LC/MS/MS. For the full pharmacokinetic profile, the parameters were computed using the “PK” package with the R statistical computing software using a non-compartmental analysis.

human IDO1 [2] = target: T1, human IDO1 (Homo sapiens (Human), UniProt P14902); assay: IDO1 enzymatic inhibition assay; assay type: biochemical
human IDO1 [3] = target: T1, human IDO1; assay: IDO1 inhibition in HEK293/IDO1 transfected cells; assay type: cell-based; conditions: HEK293/TRIPZ-IDO1 cells
[4] = Tissue protein binding (micro-equilibrium dialysis); assay type: in vitro ADME, mice; conditions: 6 hours at 37° C.
TDO2 = TDO2 (Homo sapiens, UniProt P48775); assay: TDO2 enzymatic inhibition assay; assay type: biochemical; conditions: 500 μM L-Tryptophan, means N≥3; read-out: TDO IC50
[5] = recombinant human IDO1, 200 μM L-Tryptophan, means N≥3
[6] = 24 h after doxycycline induction, means N≥3

T1 sequence (P14902 whole entry): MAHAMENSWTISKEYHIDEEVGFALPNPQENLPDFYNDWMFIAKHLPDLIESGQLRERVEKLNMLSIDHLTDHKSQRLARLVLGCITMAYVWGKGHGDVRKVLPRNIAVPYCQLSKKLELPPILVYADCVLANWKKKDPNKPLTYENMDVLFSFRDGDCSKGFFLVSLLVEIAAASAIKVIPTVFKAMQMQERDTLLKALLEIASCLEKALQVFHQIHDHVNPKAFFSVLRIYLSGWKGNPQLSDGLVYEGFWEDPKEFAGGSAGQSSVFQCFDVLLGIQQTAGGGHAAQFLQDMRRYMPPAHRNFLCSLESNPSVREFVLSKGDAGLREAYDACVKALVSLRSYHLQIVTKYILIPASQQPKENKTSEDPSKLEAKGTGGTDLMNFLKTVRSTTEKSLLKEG
TDO2, sequence (P48775 whole entry, looked up): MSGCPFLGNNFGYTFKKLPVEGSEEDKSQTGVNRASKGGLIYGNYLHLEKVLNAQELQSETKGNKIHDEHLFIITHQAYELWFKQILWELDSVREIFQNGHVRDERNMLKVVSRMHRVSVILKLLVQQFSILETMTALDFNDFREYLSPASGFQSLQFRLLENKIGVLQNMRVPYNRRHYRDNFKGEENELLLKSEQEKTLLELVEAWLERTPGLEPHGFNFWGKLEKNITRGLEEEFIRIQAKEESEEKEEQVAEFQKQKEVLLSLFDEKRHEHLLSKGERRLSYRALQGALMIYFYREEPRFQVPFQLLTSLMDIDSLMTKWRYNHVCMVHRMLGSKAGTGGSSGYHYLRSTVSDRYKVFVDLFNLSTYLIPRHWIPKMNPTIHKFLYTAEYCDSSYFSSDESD

- concentration at 0.5 h ([1]; mouse, brain, po, 20 mg/kg, 20 mg/kg PO, 0.5 Hr, individual mouse M1, read-out: Brain concentration M1): 2390 ng/mL
- concentration at 0.5 h ([1]; mouse, brain, po, 20 mg/kg, 20 mg/kg PO, 0.5 Hr, individual mouse M2, read-out: Brain concentration M2): 869 ng/mL
- concentration at 0.5 h ([1]; mouse, brain, po, 20 mg/kg, 20 mg/kg PO, 0.5 Hr, individual mouse M3, read-out: Brain concentration M3): 2560 ng/mL
- concentration at 0.5 h ([1]; mouse, brain, po, 20 mg/kg, 20 mg/kg PO, 0.5 Hr, read-out: Brain concentration Mean): 1940 ng/mL
- concentration at 2 h ([1]; mouse, brain, po, 20 mg/kg, 20 mg/kg PO, 2 Hr, individual mouse M4, read-out: Brain concentration M4): 3450 ng/mL
- concentration at 2 h ([1]; mouse, brain, po, 20 mg/kg, 20 mg/kg PO, 2 Hr, individual mouse M5, read-out: Brain concentration M5): 2050 ng/mL
- concentration at 2 h ([1]; mouse, brain, po, 20 mg/kg, 20 mg/kg PO, 2 Hr, read-out: Brain concentration Mean): 2750 ng/mL
- Kp at 0.5 h ([1]; mouse, po, 20 mg/kg, 20 mg/kg PO, 0.5 Hr, individual mouse M1, read-out: B/P Ratio M1): 0.9
- Kp at 0.5 h ([1]; mouse, po, 20 mg/kg, 20 mg/kg PO, 0.5 Hr, individual mouse M2, read-out: B/P Ratio M2): 0.5
- Kp at 0.5 h ([1]; mouse, po, 20 mg/kg, 20 mg/kg PO, 0.5 Hr, individual mouse M3, read-out: B/P Ratio M3): 0.9
- Kp at 0.5 h ([1]; mouse, po, 20 mg/kg, 20 mg/kg PO, 0.5 Hr, read-out: B/P Ratio Mean): 0.8
- Kp at 2 h ([1]; mouse, po, 20 mg/kg, 20 mg/kg PO, 2 Hr, individual mouse M4, read-out: B/P Ratio M4): 5.5
- Kp at 2 h ([1]; mouse, po, 20 mg/kg, 20 mg/kg PO, 2 Hr, individual mouse M5, read-out: B/P Ratio M5): 5
- Kp at 2 h ([1]; mouse, po, 20 mg/kg, 20 mg/kg PO, 2 Hr, read-out: B/P Ratio Mean): 5.3
- concentration at 0.5 h ([1]; mouse, plasma, po, 20 mg/kg, 20 mg/kg PO, 0.5 Hr, individual mouse M1, read-out: Plasma concentration M1): 2660 ng/mL
- concentration at 0.5 h ([1]; mouse, plasma, po, 20 mg/kg, 20 mg/kg PO, 0.5 Hr, individual mouse M2, read-out: Plasma concentration M2): 1610 ng/mL
- concentration at 0.5 h ([1]; mouse, plasma, po, 20 mg/kg, 20 mg/kg PO, 0.5 Hr, individual mouse M3, read-out: Plasma concentration M3): 2740 ng/mL
- concentration at 0.5 h ([1]; mouse, plasma, po, 20 mg/kg, 20 mg/kg PO, 0.5 Hr, read-out: Plasma concentration Mean): 2330 ng/mL
- concentration at 2 h ([1]; mouse, plasma, po, 20 mg/kg, 20 mg/kg PO, 2 Hr, individual mouse M4, read-out: Plasma concentration M4): 629 ng/mL
- concentration at 2 h ([1]; mouse, plasma, po, 20 mg/kg, 20 mg/kg PO, 2 Hr, individual mouse M5, read-out: Plasma concentration M5): 408 ng/mL
- concentration at 2 h ([1]; mouse, plasma, po, 20 mg/kg, 20 mg/kg PO, 2 Hr, read-out: Plasma concentration Mean): 519 ng/mL
- IC50 (human IDO1 [2]; [5]): 230 nM
- EC50 (human IDO1 [3]; [6]): 250 nM
Structure (SMILES): Fc1ccc2[nH]c(Cn3cncc3-c3ccc[nH]3)cc2c1 [Compound G29, 2-((5-(1H-pyrrol-2-yl)-1H-imidazol-1-yl)methyl)-5-fluoro-1H-indole]

- IC50 (human IDO1 [2]; [5]): 30000 nM
Structure (SMILES): Brc1ccc2[nH]c(-c3cnc[nH]3)cc2c1 [Compound 6, 5-bromo-2-(1H-imidazol-5-yl)-1H-indole]

- IC50 (human IDO1 [2]; [5]): 21000 nM
- EC50 (human IDO1 [3]; [6]): 4300 nM
Structure (SMILES): COc1ccc(Cn2cncc2-c2cc3cc(Br)ccc3[nH]2)cc1 [Compound 9d, 5-bromo-2-(1-(4-methoxybenzyl)-1H-imidazol-5-yl)-1H-indole]

- Tissue Concentration Plasma Mean ([1]; 20 mg/kg IP, 0.25 hr): 1880 ng/mL
- Tissue Concentration Plasma Mean ([1]; 20 mg/kg IP, 0.5 hr): 1840 ng/mL
- Tissue Concentration Plasma Mean ([1]; 20 mg/kg IP, 1 hr): 1410 ng/mL
- Tissue Concentration Plasma Mean ([1]; 20 mg/kg IP, 2 hr): 562 ng/mL
- Tissue Concentration Plasma Mean ([1]; 20 mg/kg IP, 4 hr): 133 ng/mL
- Tissue Concentration Plasma Mean ([1]; 20 mg/kg IP, 6 hr): BQL
- Tissue Concentration Plasma Mean ([1]; 20 mg/kg IP, 8 hr): BQL
- AUC(0-inf) ([1]; mouse, 20 mg/kg IP, Brain): 14200 ng·h/mL
- AUC(0-t) ([1]; mouse, 20 mg/kg IP, Brain): 9870 ng·h/mL
- Cmax ([1]; mouse, 20 mg/kg IP, Brain): 4020 ng/mL
- Tmax ([1]; mouse, 20 mg/kg IP, Brain): 30 min
- half-life ([1]; mouse, 20 mg/kg IP, Brain): 142 min
- AUC(0-inf) ([1]; mouse, 20 mg/kg IP, Plasma): 2920 ng·h/mL
- AUC(0-t) ([1]; mouse, 20 mg/kg IP, Plasma): 2910 ng·h/mL
- Cmax ([1]; mouse, 20 mg/kg IP, Plasma): 1880 ng/mL
- Tmax ([1]; mouse, 20 mg/kg IP, Plasma): 15 min
- half-life ([1]; mouse, 20 mg/kg IP, Plasma): 49.8 min
- concentration at 0.25 h ([1]; mouse, brain, ip, 20 mg/kg, 20 mg/kg IP, 0.25 hr, read-out: Tissue Concentration Brain Mean): 1660 ng/g
- concentration at 0.5 h ([1]; mouse, brain, ip, 20 mg/kg, 20 mg/kg IP, 0.5 hr, read-out: Tissue Concentration Brain Mean): 4020 ng/g
- concentration at 1 h ([1]; mouse, brain, ip, 20 mg/kg, 20 mg/kg IP, 1 hr, read-out: Tissue Concentration Brain Mean): 3520 ng/g
- concentration at 2 h ([1]; mouse, brain, ip, 20 mg/kg, 20 mg/kg IP, 2 hr, read-out: Tissue Concentration Brain Mean): 2760 ng/g
- concentration at 4 h ([1]; mouse, brain, ip, 20 mg/kg, 20 mg/kg IP, 4 hr, read-out: Tissue Concentration Brain Mean): 1370 ng/g
- concentration at 6 h ([1]; mouse, brain, ip, 20 mg/kg, 20 mg/kg IP, 6 hr, read-out: Tissue Concentration Brain Mean): 552 ng/g
- concentration at 8 h ([1]; mouse, brain, ip, 20 mg/kg, 20 mg/kg IP, 8 hr, read-out: Tissue Concentration Brain Mean): 510 ng/g
- IC50 (human IDO1 [2]; recombinant human IDO1): 310 nM
- IC50 (human IDO1 [2]; [5]): 309 nM
- fraction unbound at 6 h ([4]; pooled brain homogenate in PBS (1:3 m:v), pooled mouse brain homogenized with PBS (1:3), read-out: % FU Brain): 0.0161
- fraction unbound at 6 h ([4]; pooled mouse plasma, read-out: fu,plasma / % FU Plasma): 0.0117
- EC50 (human IDO1 [3]): 470 nM
- EC50 (human IDO1 [3]; [6]): 467 nM
Structure (SMILES): Brc1ccc2[nH]c(Cn3cncc3-c3ccc[nH]3)cc2c1 [Compound G28, 2-((5-(1H-pyrrol-2-yl)-1H-imidazol-1-yl)methyl)-5-bromo-1H-indole]

- increase in potency versus compound 6 (human IDO1 [2]; IDO1 IC50, versus compound 6): two-fold
Structure (SMILES): Brc1ccc2[nH]c(-c3cncn3Cc3ccccc3)cc2c1 [Compound 9a, 2-(1-benzyl-1H-imidazol-5-yl)-5-bromo-1H-indole]

- IC50 (TDO2): 158 µM
Structure (SMILES): Oc1ccccc1-c1cncn1Cc1cc2cc(Br)ccc2[nH]1 [Compound 10c, 2-(1-((5-bromo-1H-indol-2-yl)methyl)-1H-imidazol-5-yl)phenol]
